Article PMC7501730, “Discovery of novel small molecule inhibitors of S100P with in vitro anti-metastatic effects on pancreatic cancer cells” (European Journal of Medicinal Chemistry, 2020)

Tests used:
S100P-RAGE interaction = biological target: T1, S100P-RAGE interaction (Homo sapiens, UniProt P25815); experiment: ELISA of S100P-RAGE binding inhibition; settings: for IC50 / ELISA inhibition: Table 2; for IC50: analog series of hit 4, read-out: Estimated IC50; for ELISA inhibition: concentration with significant inhibition of S100P-RAGE binding, asterisks = significance by one-way ANOVA
T1 construct: His tag (N); made in house; host or cells: Escherichia coli BL21*
T1 sequence (P25815 1-95): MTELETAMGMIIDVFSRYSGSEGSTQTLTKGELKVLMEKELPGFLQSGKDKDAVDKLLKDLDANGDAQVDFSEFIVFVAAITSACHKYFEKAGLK
Protocol: The purchased computational screening hits were subjected to initial biological testing for inhibition of S100P-RAGE binding (ELISA), with cromolyn as positive control, using an adaptation of the reported ELISA for S100 family members.
Fig. 2 Effects of compounds 1–14 on S100P binding to RAGE. Human S100P (2 μM) coated wells were incubated with increasing concentrations of the compound tested, in triplicate, and exposed to human RAGE-Fc (100 nM) followed by goat anti-human secondary antibody to detect RAGE bound S100P. Data are compared to S100P/RAGE binding with no inhibitor (DMSO, 100%) and are presented as mean ± SEM; data is significant by one way ANOVA, where ∗ = p < 0.05, ∗∗ = p < 0.01 and ∗∗∗ = p < 0.001; n = 9 from 3 plates.
To generate human S100P recombinant protein, a pQE-30 ([…]) plasmid encoding S100P with N-terminal histidine tags (gifted by Dr Igor Barsukov, Liverpool University, UK), was transformed into BL21∗ competent Escherichia coli cells. Recombinant protein was purified using a HisTrap Nickel-nitrilotriacetic acid (Ni-NTA) agarose column (GE Healthcare, UK).
Purified recombinant S100P (2μM/well) in phosphate buffer (PBS; 137 mM NaCl, 2.7 mM KCl, 10 mM Na2HPO4, 1.8 mM KH2PO4, pH 7.4; supplemented with 1 mM CaCl2, 10 μM ZnCl2, and 0.5 mM MgCl2) was used for coating a 96 well plate (NunclonDelta, Fisher), and incubated overnight at 37 °C.
Following washing, S100P non-specific binding sites were blocked with 1% bovine serum albumin (BSA; Fisher, UK) in PBS for 2 h at 37 °C. Following three washes, S100P was incubated with increasing concentrations of compounds, in parallel to cromolyn and DMSO treated wells, all in triplicate. Then 30 nM recombinant human receptor for advanced glycation end products (rh/RAGE-Fc; R&D Systems) was added and incubated for 1 h at 37 °C. Controls included a negative control (S100P protein, no RAGE-Fc), a positive control (S100P protein plus RAGE), and vehicle control (0.001% DMSO in PBS) were included in each plate. After three washes in PBS, all wells were exposed to goat anti-human HRP conjugate (1:1000; Millipore) for 1 h at 37 °C in order to detect bound receptors. Subsequent to washes, wells were incubated for 20 min in the dark with 3,3′,5,5′-tetramethylbenzidene (TMB) substrate (Sigma, UK). Plates were read at 450 nm using a Multiskan Ascent spectrophotometer (Fisher Scientific, UK). All sample readings were normalized to the positive control (S100P plus RAGE-Fc). Statistical analysis was performed and graphs plotted using the GraphPad Prism software in the following way: One Way ANOVA was used to compare the effects of concentration of each compound to the effects of vehicle control (DMSO), and p values of <0.05 were considered statistically significant. A post hoc analysis was conducted using Dunnetts multiple comparisons test; results are indicated by ∗ = p < 0.05; ∗∗ = p < 0.01 and ∗∗∗ = p < 0.001.

[1] = system: BxPC-3 cells (S100P-expressing); experiment: LDH release cytotoxicity assay, BxPC-3; type: cell-based, Human; settings: BxPC-3, 10 μM, over three days incubation, compared to vehicle control
Protocol: Metabolic activity and cytotoxicity/cytolysis were measured with the MTS (CellTiter® 96 AQueous One Solution assay, Promega) and LDH release (CytoTox-ONE™ Homogeneous Membrane Integrity assay, Promega) assays respectively, in S100P-expressing (BxPC-3) and S100P-negative (Panc-1) cell lines, at a compound concentration of 10 μM. Cromolyn was used as a positive control.
1 × 10^5 Panc-1 cells and 1x10^5 BxPC-3 cells were plated and allowed to adhere for 24 h; the cells were treated with cromolyn or the hit compounds for up to 3 days. MTS (CellTiter® 96 AQueous One Solution assay, Promega) and LDH release (CytoTox-ONE™ Homogeneous Membrane Integrity assay, Promega) assays were carried out every 24 h for a total of 3 days. MTS data was calculated in the following manner: OD for background absorbance was subtracted and all samples normalized to untreated cells in order to ascertain whether any compound-dependent effect occurred.
(§3) Since formazan formation is proportional to LDH release, data was calculated by subtracting the OD background and plotting the mean ± SEM.
10^5 BxPC3 cells were treated with 10 µM hit compounds for 24 hours, and the effect on LDH staining for each time point measured by fluorescence microplate reader.

[2] = system: Panc-1 cells (S100P-negative); experiment: LDH release cytotoxicity assay, Panc-1; type: cell-based, Human; settings: Panc-1, 10 μM, over three days incubation, compared to vehicle control
Protocol: Metabolic activity and cytotoxicity/cytolysis were measured with the MTS (CellTiter® 96 AQueous One Solution assay, Promega) and LDH release (CytoTox-ONE™ Homogeneous Membrane Integrity assay, Promega) assays respectively, in S100P-expressing (BxPC-3) and S100P-negative (Panc-1) cell lines, at a compound concentration of 10 μM. Cromolyn was used as a positive control. […]
1 × 10^5 Panc-1 cells and 1x10^5 BxPC-3 cells were plated and allowed to adhere for 24 h; the cells were treated with cromolyn or the hit compounds for up to 3 days. […] MTS data was calculated in the following manner: OD for background absorbance was subtracted and all samples normalized to untreated cells in order to ascertain whether any compound-dependent effect occurred.
as §3
10^5 Panc- 1 cells were treated with 10 µM hit compounds for 24 hours, and the effect on LDH staining for each time point measured by fluorescence microplate reader.

[3] = system: BxPC-3 cells (S100P-positive); experiment: Transwell Matrigel invasion assay, BxPC-3; type: cell-based, Human; settings: 10% FBS chemoattractant
Protocol: The effect of the S100P-binding hit compounds to inhibit cell invasion in S100P-expressing cells in vitro was measured via a Transwell invasion assay. In this assay, cells invade through the matrigel on upper Transwell chamber towards a lower chamber containing a chemoattractant.
Data is shown as mean ± SEM number of invasive cells as counted under the microscope (x100).
The Transwell invasion assay (Fisher Scientific, Germany) was performed using chambers with polyethylene terephthalate (PET) membrane filters with 8 μm pore size coated on the upper side with Matrigel (a layer of extracellular matrix (ECM) to mimic the process of the ECM invasion.
BxPC-3 and Panc-1 cells were cultured as described above for 24 h, were re-suspended and diluted in the appropriate serum-free medium to a seeding density of 2 × 10^5 cells/mL and added to the upper chambers of the Transwell invasion chambers. DMEM and RPMI-1640 media were supplemented with 10% fetal bovine serum (FBS; Sigma, USA) to act as a chemoattractant. […]
Cells that had passed through the matrigel coated membrane to the lower surface were fixed and stained with Diff-Quik stain kit (Fisher, USA) according to the manufacturer’s instructions. […] The number of invaded cells were counted in five different fields of view using the ImageJ 1.50i software (windows version of NIH Image, http://rsb.info.nih.gov/nih-image/). […]

BxPC-3 cells = experiment: LDH release from cells in upper Transwell chamber, BxPC-3; type: cell-based, Human; settings: BxPC-3, 48 h; hit compounds 10 μM, cromolyn 10, 100 and 300 μM
Protocol: (§1) In order to exclude any possibility that reduced cell invasiveness was due to cell death during the time period of the assay, the viability of cells in the upper Transwell® chamber was assessed via measurement of LDH release. […] (Supplementary Data).
(§2) Figure S2: No significant difference in cell toxicity, measured by LDH release, is observed between treated and untreated cells in the Transwell® invasion assay. Cytotoxicity was measured using the medium recovered from the upper chamber of each Transwell ® chamber which contained BxPC-3 (A) and Panc-1 (B) cells treated with cromolyn (10 µM, 100 µM, and 300 µM) and hit compounds (10 µM) and incubated for 48 h. Data are the mean ± SEM of three independent experiments (n=3). One-way ANOVA assessed significance, and Dunnett post-hoc test is denoted by ns=P>0.05 in comparison to untreated control.

Panc-1 cells = experiment: LDH release from cells in upper Transwell chamber, Panc-1; type: cell-based, Human; settings: Panc-1, 48 h; hit compounds 10 μM, cromolyn 10, 100 and 300 μM
Protocol: as §1, §2

| Structure (SMILES) | concentration with significant inhibition of S100P-RAGE binding (S100P-RAGE interaction; ELISA) [nM] | IC50 (S100P-RAGE interaction; ELISA) [nM] | ELISA inhibition (S100P-RAGE interaction) | melting point [°C] | maximum inhibition of S100P-RAGE binding (S100P-RAGE interaction; ELISA) [%] | cytotoxicity (LDH release) [1] | cytotoxicity (LDH release) [2] | inhibition of cell invasion to the lower chamber ([3]; BxPC-3, 10 μM, 48 h) | concentration with significant inhibition of invasion ([3]; BxPC-3, 48 h) [µM] | LDH release of cells in upper Transwell chamber (BxPC-3 cells) | LDH release of cells in upper Transwell chamber (Panc-1 cells) |
| --- | --- | --- | --- | --- | --- | --- | --- | --- | --- | --- | --- |
| O=C1C2C3c4ccccc4C([N+](=O)[O-])(c4ccccc43)C2C(=O)N1c1cccc(F)c1 (centres unmarked) [Compound 4b, 13-(3-fluorophenyl)-9-nitro-9,10-dihydro-9,10-[3,4]epipyrroloanthracene-12,14-dione] | ≤ 100 | – | 100 nM∗ | 241 to 243 | – | – | – | – | – | – | – |
| O=C(O)c1cc(=O)c2c(OCC(O)COc3cccc4oc(C(=O)O)cc(=O)c34)cccc2o1 [cromolyn] | ≥ 100 | – | – | – | 56 | neither the hit compounds nor cromolyn exhibited cytotoxicity | neither the hit compounds nor cromolyn exhibited cytotoxicity | did not exhibit a statistically significant effect | ≥ 100 | no significant increase in LDH release | no significant increase in LDH release |

Further lines, with some results ahead:

| concentration with significant inhibition of S100P-RAGE binding (S100P-RAGE interaction; ELISA) [nM] | IC50 (S100P-RAGE interaction; ELISA) [nM] | ELISA inhibition (S100P-RAGE interaction) | melting point [°C] | Structure (SMILES) | maximum inhibition of S100P-RAGE binding (S100P-RAGE interaction; ELISA) [%] | cytotoxicity (LDH release) [1] | cytotoxicity (LDH release) [2] | inhibition of cell invasion to the lower chamber ([3]; BxPC-3, 10 μM, 48 h) | concentration with significant inhibition of invasion ([3]; BxPC-3, 48 h) [µM] | LDH release of cells in upper Transwell chamber (BxPC-3 cells) | LDH release of cells in upper Transwell chamber (Panc-1 cells) |
| --- | --- | --- | --- | --- | --- | --- | --- | --- | --- | --- | --- |
| ≤ 100 | 1.3 | 10 nM∗ | 228 to 230 | O=C1C2C3c4ccccc4C(c4ccccc43)C2C(=O)N1c1cccc(F)c1 (centres unmarked) [Compound 4o, 13-(3-fluorophenyl)-9,10-dihydro-9,10-[3,4]epipyrroloanthracene-12,14-dione] | – | – | – | – | – | – | – |
| ≤ 100 | 0.482 | <10 nM∗∗∗ | 344 to 345 | O=C(O)c1ccc(N2C(=O)C3C4c5ccccc5C([N+](=O)[O-])(c5ccccc54)C3C2=O)cc1 (centres unmarked) [Compound 4f, 4-(9-Nitro-12,14-dioxo-9,10-dihydro-9,10-[3,4]epipyrroloanthracen-13-yl)benzoic acid] | – | – | – | – | – | – | – |
| ≤ 100 | 4.15 | 10 nM∗ | 250 to 253 | O=C1C2C3c4ccccc4C(c4ccccc43)C2C(=O)N1c1ccc(F)cc1 (centres unmarked) [Compound 4u, 13-(4-fluorophenyl)-9,10-dihydro-9,10-[3,4]epipyrroloanthracene-12,14-dione] | – | – | – | – | – | – | – |
